This is an account of results in patent publication US8431563B2 (priority 2010, dated 2013).

The target in assay [1] is T1, GKRP (Glucokinase Regulatory Protein) with human His-hepatic GK (Homo sapiens, UniProt Q14397).
T1 sequence (Q14397 1-625): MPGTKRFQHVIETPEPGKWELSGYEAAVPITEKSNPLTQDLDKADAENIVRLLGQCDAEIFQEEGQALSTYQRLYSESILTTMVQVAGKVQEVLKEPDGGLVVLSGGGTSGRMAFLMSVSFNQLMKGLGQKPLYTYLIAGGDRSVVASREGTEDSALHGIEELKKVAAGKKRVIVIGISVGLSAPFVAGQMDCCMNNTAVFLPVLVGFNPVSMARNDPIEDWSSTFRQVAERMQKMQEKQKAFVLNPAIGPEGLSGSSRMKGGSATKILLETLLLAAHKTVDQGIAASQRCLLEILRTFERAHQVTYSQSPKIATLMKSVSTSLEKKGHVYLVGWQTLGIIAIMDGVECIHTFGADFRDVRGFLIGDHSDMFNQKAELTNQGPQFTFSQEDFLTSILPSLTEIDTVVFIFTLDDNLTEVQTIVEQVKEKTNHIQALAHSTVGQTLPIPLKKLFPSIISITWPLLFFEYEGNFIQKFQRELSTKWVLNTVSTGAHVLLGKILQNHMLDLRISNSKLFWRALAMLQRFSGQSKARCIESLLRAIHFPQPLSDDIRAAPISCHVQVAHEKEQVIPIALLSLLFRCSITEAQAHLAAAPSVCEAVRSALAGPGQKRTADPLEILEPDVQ
Nature of the assay: GKRP NADPH Coupled Assay. The class given is biochemical. The following applies: indirect measure of glucose-6-phosphate, fluorescence, 1 μM GKRP (10×), 20 nM GK (5×). The procedure:
(§1) This assay is used to directly measure the formation of ^13C-glucose-6-phosphate from ^13C-glucose by liquid chromatography-mass spectrometry (LC MS/MS). Begin by preparing the following solutions: Compound Buffer (CB): 50 mM Tris, pH 7.5/4 mM MgCl2/6% DMSO/fresh 10 mM DTT from 1M frozen stock. Enzyme Buffer (EB): 50 mM Tris, pH 7.5/4 mM MgCl2/6% DMSO/fresh 0.1% BSA/fresh 0.01% Brij-35 (10% BSA and 1% Brij-35 stock). GK (Glucokinase) Working Stock (5×): Dilute human His-hepatic GK to 30 nM in EB buffer. […] After 30 minutes add 10 μl of GK Working Stock (5×). Re-seal the plate and incubate for another 30 minutes at room temperature while mixing. After the second 30 minutes, stop the reaction by the addition of 50 μl of 100% acetonitrile, seal, and mix for 5-10 minutes. Run 10 μl of this sample through the LC MS/MS (API 3200, Applied Biosystems Inc., Carlsbad, Calif.).
This assay is used as an indirect measure of glucose-6-phosphate (G6P) formed from glucose due to the enzymatic activity of glucokinase. Assay format is the same as for GKRP LC MS/MS Biochemical Assay with the following exceptions. GK Working Stock (5×): Dilute human His-hepatic GK to 20 nM in EB buffer. Stop & Detection Reagent (2×): Dilute β-nicotinamide adenine dinucleotide phosphate sodium salt (β-NADP) (Aldrich-Sigma, St. Louis, Mo.) to 2 mM from 100 mM stock (stock in 10 mM Tris, pH 9.2) and dilute glucose-6-phosphate dehydrogenase (Aldrich-Sigma, St. Louis, Mo.) to 0.04 Unit/μl from 10 Unit/μl (stock in 10 mM Tris pH 7.5/0.05% Brij-35) in 0.2 M Tris, pH 9.2/8% DMSO. After the initial 30 minute incubation add 10 μl of 20 nM GK diluted in EB (5×). Re-seal the plate and incubate for another 1 hour at room temperature while mixing. After 1 hour remove the seal and add 50 μl of Stop & Detection Reagent and incubate for 5 minutes at room temperature while mixing.

Assay [2] has as its target T1, GKRP (Glucokinase Regulatory Protein) with human His-hepatic GK. Nature of the assay: GKRP LC MS/MS Biochemical Assay. The following applies: 13C-glucose-6-phosphate formation, 1 μM GKRP (10×), 30 nM GK (5×). The procedure:
GKRP LC MS/MS Biochemical Assay
as §1

Setting [3] is: read-out: GK-GKRP EC50 (NADPH-coupled).
[4] abbreviates: read-out: GK-GKRP EC50 (LC MS/MS).

Consider `CC(O)(c1ccc(N2CCN(S(=O)(=O)c3cccs3)CC2c2cc(Cl)ccc2Cl)cc1)C(F)(F)F` (mixture of isomers) [Example 13, 2-(4-(2-(2,5-dichlorophenyl)-4-(2-thiophenylsulfonyl)-1-piperazinyl)phenyl)-1,1,1-trifluoro-2-propanol], for which the EC50 was 2640 nM in assay [1] (GK-GKRP EC50 (NADPH-coupled)) and 1960 nM in assay [2] (GK-GKRP EC50 (LC MS/MS)).

In the case of `C[C@H]1CN(S(=O)(=O)c2ccccc2)CCN1c1ccc(C(C)(O)C(F)(F)F)cc1` (mixture of isomers) [Example 28, 1,1,1-trifluoro-2-(4-((2S)-2-methyl-4-(phenylsulfonyl)-1-piperazinyl)phenyl)-2-propanol], the EC50 in assay [1] (GK-GKRP EC50 (NADPH-coupled)) was 3120 nM; in assay [2] (GK-GKRP EC50 (LC MS/MS)), 4010 nM.

On to `C[C@H]1CN(S(=O)(=O)c2nnc(N)s2)CCN1c1ccc(C(C)(O)C(F)(F)F)cc1` (mixture of isomers) [Example 35, 2-(4-((2S)-4-((5-amino-1,3,4-thiadiazol-2-yl)sulfonyl)-2-methyl-1-piperazinyl)phenyl)-1,1,1-trifluoro-2-propanol], for which the EC50 amounted to 3040 nM in assay [1] (GK-GKRP EC50 (NADPH-coupled)) and 5620 nM in assay [2] (GK-GKRP EC50 (LC MS/MS)).

In the case of `CC(O)(c1ccc(N2CCN(S(=O)(=O)c3cccs3)CC2Cc2ccccc2F)cc1)C(F)(F)F` (mixture of isomers) [Example 38, 1,1,1-trifluoro-2-(4-(2-(2-fluorobenzyl)-4-(2-thiophenylsulfonyl)-1-piperazinyl)phenyl)-2-propanol], the EC50 in assay [1] (GK-GKRP EC50 (NADPH-coupled)) was determined as 515 nM; in assay [2] (GK-GKRP EC50 (LC MS/MS)), 850 nM.

Turning to `CC(O)(c1ccc(N2CCN(S(=O)(=O)c3cccs3)CC2Cc2cccc(F)c2)cc1)C(F)(F)F` (mixture of isomers) [Example 39, 1,1,1-trifluoro-2-(4-(2-(3-fluorobenzyl)-4-(2-thiophenylsulfonyl)-1-piperazinyl)phenyl)-2-propanol], the EC50 in assay [1] (GK-GKRP EC50 (NADPH-coupled)) was 802 nM; in assay [2] (GK-GKRP EC50 (LC MS/MS)), 1090 nM.

On to `CC(O)(c1ccc(N2CCN(S(=O)(=O)c3cccs3)CC2Cc2ccc(F)cc2)cc1)C(F)(F)F` (mixture of isomers) [Example 40, 1,1,1-trifluoro-2-(4-(2-(4-fluorobenzyl)-4-(2-thiophenylsulfonyl)-1-piperazinyl)phenyl)-2-propanol], for which the results for the EC50 in assay [1] (GK-GKRP EC50 (NADPH-coupled)) and in assay [2] (GK-GKRP EC50 (LC MS/MS)) were 895 nM and 1250 nM, respectively.

For `CC(O)(c1ccc(N2CCN(S(=O)(=O)c3cccs3)CC2COCc2ccccc2)cc1)C(F)(F)F` (mixture of isomers) [Example 44 Step 5, 2-(4-(2-((benzyloxy)methyl)-4-(2-thiophenylsulfonyl)-1-piperazinyl)phenyl)-1,1,1-trifluoro-2-propanol], the figures for the EC50 in assay [1] (GK-GKRP EC50 (NADPH-coupled)) and in assay [2] (GK-GKRP EC50 (LC MS/MS)) were 420 nM and 617 nM, respectively.

On to `CC1(C)CN(CC2CN(S(=O)(=O)c3cccs3)CCN2c2ccc(C(C)(O)C(F)(F)F)cc2)CCO1` (mixture of isomers) [Example 47, 2-(4-(2-((2,2-dimethyl-4-morpholinyl)methyl)-4-(2-thiophenylsulfonyl)-1-piperazinyl)phenyl)-1,1,1-trifluoro-2-propanol], for which the EC50 in assay [1] (GK-GKRP EC50 (NADPH-coupled)) was 182 nM; in assay [2] (GK-GKRP EC50 (LC MS/MS)), 295 nM.

In the case of `CC(O)(c1ccc(N2CCN(S(=O)(=O)c3cccs3)CC2CN2CCOCC2CO)cc1)C(F)(F)F` (mixture of isomers) [Example 48, 1,1,1-trifluoro-2-(4-(2-((3-(hydroxymethyl)-4-morpholinyl)methyl)-4-(2-thiophenylsulfonyl)-1-piperazinyl)phenyl)-2-propanol], the EC50 in assay [1] (GK-GKRP EC50 (NADPH-coupled)) was 389 nM; in assay [2] (GK-GKRP EC50 (LC MS/MS)), 606 nM.

As for `CC1CN(CC2CN(S(=O)(=O)c3cccs3)CCN2c2ccc(C(C)(O)C(F)(F)F)cc2)CCO1` (mixture of isomers) [Example 49, 1,1,1-trifluoro-2-(4-(2-((2-methyl-4-morpholinyl)methyl)-4-(2-thiophenylsulfonyl)-1-piperazinyl)phenyl)-2-propanol], the values for the EC50 in assay [1] (GK-GKRP EC50 (NADPH-coupled)) and in assay [2] (GK-GKRP EC50 (LC MS/MS)) were 647 nM and 707 nM, respectively.

Take `CC(O)(c1ccc(N2CCN(S(=O)(=O)c3cccs3)CC2CN2CCC(F)(F)CC2)cc1)C(F)(F)F` (mixture of isomers) [Example 51, 2-(4-(2-((4,4-difluoro-1-piperidinyl)methyl)-4-(2-thiophenylsulfonyl)-1-piperazinyl)phenyl)-1,1,1-trifluoro-2-propanol]: the EC50 in assay [1] (GK-GKRP EC50 (NADPH-coupled)) came out at 1050 nM; in assay [2] (GK-GKRP EC50 (LC MS/MS)) it was 1530 nM.

`CC(O)(c1ccc(N2CCN(S(=O)(=O)c3cccs3)CC2CN2CCOC(CO)C2)cc1)C(F)(F)F` (mixture of isomers) [Example 52, 1,1,1-trifluoro-2-(4-(2-((2-(hydroxymethyl)-4-morpholinyl)methyl)-4-(2-thiophenylsulfonyl)-1-piperazinyl)phenyl)-2-propanol]: the EC50 in assay [1] (GK-GKRP EC50 (NADPH-coupled)) came out at 1620 nM; in assay [2] (GK-GKRP EC50 (LC MS/MS)), 1170 nM.

For `CC(O)(c1ccc(N2CCN(S(=O)(=O)c3cccs3)CC2CN2CC(O)C2)cc1)C(F)(F)F` (mixture of isomers) [Example 53, 1-((4-(2-thiophenylsulfonyl)-1-(4-(2,2,2-trifluoro-1-hydroxy-1-methylethyl)phenyl)-2-piperazinyl)methyl)-3-azetidinol], the EC50 in assay [1] (GK-GKRP EC50 (NADPH-coupled)) came to 2260 nM; in assay [2] (GK-GKRP EC50 (LC MS/MS)) it was 1790 nM.

Regarding `CC(C)(CO)NCC1CN(S(=O)(=O)c2cccs2)CCN1c1ccc(C(C)(O)C(F)(F)F)cc1` (mixture of isomers) [Example 54, 2-methyl-2-(((4-(2-thiophenylsulfonyl)-1-(4-(2,2,2-trifluoro-1-hydroxy-1-methylethyl)phenyl)-2-piperazinyl)methyl)amino)-1-propanol], the EC50 came out at 2970 nM in assay [1] (setting [3]) and 2780 nM in assay [2] (setting [4]).

With `CC(O)(c1ccc(N2CCN(S(=O)(=O)c3cccs3)CC2CC#N)cc1)C(F)(F)F` (mixture of isomers) [Example 55, (4-(2-thiophenylsulfonyl)-1-(4-(2,2,2-trifluoro-1-hydroxy-1-methylethyl)phenyl)-2-piperazinyl)acetonitrile], the EC50 stood at 3030 nM in assay [1] (setting [3]) and 3940 nM in assay [2] (setting [4]).

In the case of `CC(C)CC1CN(S(=O)(=O)c2cccs2)CCN1c1ccc(C(C)(O)C(F)(F)F)cc1` (mixture of isomers) [Example 57, 1,1,1-trifluoro-2-(4-(2-(2-methylpropyl)-4-(2-thiophenylsulfonyl)-1-piperazinyl)phenyl)-2-propanol], the EC50 is 655 nM in assay [1] (setting [3]) and 1020 nM in assay [2] (setting [4]).

For the compound `O=S(=O)(c1cccs1)N1CCN(c2ccc(C(O)(CO)C(F)(F)F)cc2)CC1` (single isomer, unassigned) [Example 66 Peak #2, 3,3,3-trifluoro-2-(4-(4-(2-thiophenylsulfonyl)-1-piperazinyl)phenyl)-1,2-propanediol], the EC50 in assay [2] (setting [4]) was 1260 nM.

`O=S(=O)(c1cccs1)N1CCN(c2ccc(C(O)(CO)C(F)(F)F)cc2)[C@@H](Cc2ccccc2)C1` (single isomer, unassigned) [Example 68 Peak #1] returned an EC50 in assay [2] (GK-GKRP EC50 (LC MS/MS)) of 870 nM.

Take `O=S(=O)(c1cccs1)N1CCN(c2ccc(C(O)(CO)C(F)(F)F)cc2)[C@@H](Cc2ccccc2)C1` (single isomer, unassigned) [Example 68 Peak #2]: the EC50 in assay [2] (GK-GKRP EC50 (LC MS/MS)) turned out to be 94 nM.

The compound `O=S(=O)(c1ccccc1)N1CCN(c2ncc(C(O)(C(F)(F)F)C(F)(F)F)cn2)CC1` [Example 23, 1,1,1,3,3,3-hexafluoro-2-(2-(4-(phenylsulfonyl)-1-piperazinyl)-5-pyrimidinyl)-2-propanol] came in with an EC50 in assay [2] (GK-GKRP EC50 (LC MS/MS)) of 1310 nM.
